How the values were obtained:
ΔF508-CFTR [1] = target: T1, ΔF508-CFTR (Homo sapiens, UniProt P13569, DEL508-508); assay: CFTR cell surface levels using HRP-tagged ΔF508-CFTR expressing CFBE cells, in the presence of a co-corrector; type: cell-based; conditions: HRP-tagged ΔF508-CFTR expressing CFBE cells, in the presence of 3 μM co-corrector; for EC50: read-out: EC50
T1 construct: host or cells: CFBE41o-, doxycycline-inducible
In short: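 Cells were seeded with 0.5 μg/mL doxycycline and held 68 h at 37 °C. Test compounds plus 3 μM co-corrector (final 0.1% DMSO) were then added for 20 h at 33 °C. Washed cells received HRP substrate, and luminescence was normalized between DMSO and 3 μM co-corrector controls.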

ΔF508-CFTR [2] = target: T1, ΔF508-CFTR; assay: CFTR cell surface levels using HRP-tagged ΔF508-CFTR expressing CFBE cells, intrinsic corrector capacity; type: cell-based; conditions: for EC50: read-out: EC50
Source text: Measuring CFTR Cell Surface Levels Using HRP-Tagged AF508-CFTR Expressing CFBE Cells
The HRP-tagged AF508-CFTR cell assay measures the expression of CFTR-ΔF508 at the plasma membrane. CFTR-ΔF508 has a folding defect leading to absence of protein at the plasma membrane. This assay is used to evaluate the capacity of compounds to increase the expression of CFTR-ΔF508 at the plasma membrane. The CFTR-ΔF508 is tagged with HRP (horse radish peroxidase enzyme) within the ECL4 (Extracellular loop 4) of CFTR (Phuan, P.-W. et al. Synergy-based small-molecule screen using a human lung epithelial cell line yields AF508-CFTR correctors that augment VX-809 maximal efficacy. Mol. Pharmacol. 86, 42-51 (2014)). When HRP-tagged AF508-CFTR is present at the plasma membrane, the HRP enzyme activity can be measured. The amount of CFTR-ΔF508 that can be rescued to the plasma membrane is correlated with the amount of functional enzyme that can be measured.
There are several ways to measure the capacity of compounds to rescue CFTR-ΔF508 to the plasma membrane; either compounds are evaluated on their own and the impact on plasma membrane levels is measured or compounds are evaluated in combination with a co-corrector, i.e. a compound that rescues CFTR-ΔF508 to the plasma membrane but rescue can be enhanced by addition of compounds due to a complementary mode of action.
Activity of Compounds for their Intrinsic Corrector Capacity:
For this purpose doxycycline-inducible AF508-CFTR-HRP expressing CFBE4lo-cells (obtained from Gergely Lukacs, McGill University) were maintained in MEM (Gibco; 31095) supplemented with 10% fetal bovine serum (Hyclone; SV30160.03) under puromycin (3 μg/mL) and G418 selection (0.2 mg/mL). For compound testing, cells were seeded at 4000 cells/well in white 384-well plates (Greiner; 781080) in 50 μL medium containing 0.5 μg/mL doxycycline and incubated for 68 hours at 37° C., 5% CO2. On day four, 10 μL test compounds diluted in PBS were added to the plates at a final DMSO concentration of 0.1%. All compound plates contained negative controls (DMSO) and positive controls (3 μM corrector, 3-[(2R,4R)-4-({[1-(2,2-difluoro-1,3-benzodioxol-5-yl)cyclopropyl]carbonyl}amino)-7-methoxy-3,4-dihydro-2H-chromen-2-yl]benzoic acid). Cell plates were incubated at 33° C., 5% CO2 for 20 hours. On day five, the cells were washed five times with phosphate-buffered saline, and HRP activity was assayed by the addition of 50 μL/well of HRP substrate (SuperSignal™ West Pico Chemiluminescent Substrate, Thermo Scientific; 34080). After incubation for 15 minutes in the dark, chemiluminescence was measured using a plate reader (EnVision®, Perkin Elmer). Raw data were normalized to percentage activity values using the equation: 100×(Sample−Negative control)/(Positive control−Negative Control).

[3] = HRP-tagged ΔF508-CFTR expressing CFBE cells, intrinsic corrector capacity (no co-corrector), 33° C., 20 hours
[4] = HRP-tagged ΔF508-CFTR CFBE41o- cells, compounds alone (intrinsic corrector capacity), 20 hours at 33° C., positive control 3 μM corrector
[5] = HRP-tagged ΔF508-CFTR CFBE41o- cells, compounds alone (intrinsic corrector capacity), 20 hours at 33° C.

T1 sequence (P13569 with tags, fused parts or gaps DEL508-508): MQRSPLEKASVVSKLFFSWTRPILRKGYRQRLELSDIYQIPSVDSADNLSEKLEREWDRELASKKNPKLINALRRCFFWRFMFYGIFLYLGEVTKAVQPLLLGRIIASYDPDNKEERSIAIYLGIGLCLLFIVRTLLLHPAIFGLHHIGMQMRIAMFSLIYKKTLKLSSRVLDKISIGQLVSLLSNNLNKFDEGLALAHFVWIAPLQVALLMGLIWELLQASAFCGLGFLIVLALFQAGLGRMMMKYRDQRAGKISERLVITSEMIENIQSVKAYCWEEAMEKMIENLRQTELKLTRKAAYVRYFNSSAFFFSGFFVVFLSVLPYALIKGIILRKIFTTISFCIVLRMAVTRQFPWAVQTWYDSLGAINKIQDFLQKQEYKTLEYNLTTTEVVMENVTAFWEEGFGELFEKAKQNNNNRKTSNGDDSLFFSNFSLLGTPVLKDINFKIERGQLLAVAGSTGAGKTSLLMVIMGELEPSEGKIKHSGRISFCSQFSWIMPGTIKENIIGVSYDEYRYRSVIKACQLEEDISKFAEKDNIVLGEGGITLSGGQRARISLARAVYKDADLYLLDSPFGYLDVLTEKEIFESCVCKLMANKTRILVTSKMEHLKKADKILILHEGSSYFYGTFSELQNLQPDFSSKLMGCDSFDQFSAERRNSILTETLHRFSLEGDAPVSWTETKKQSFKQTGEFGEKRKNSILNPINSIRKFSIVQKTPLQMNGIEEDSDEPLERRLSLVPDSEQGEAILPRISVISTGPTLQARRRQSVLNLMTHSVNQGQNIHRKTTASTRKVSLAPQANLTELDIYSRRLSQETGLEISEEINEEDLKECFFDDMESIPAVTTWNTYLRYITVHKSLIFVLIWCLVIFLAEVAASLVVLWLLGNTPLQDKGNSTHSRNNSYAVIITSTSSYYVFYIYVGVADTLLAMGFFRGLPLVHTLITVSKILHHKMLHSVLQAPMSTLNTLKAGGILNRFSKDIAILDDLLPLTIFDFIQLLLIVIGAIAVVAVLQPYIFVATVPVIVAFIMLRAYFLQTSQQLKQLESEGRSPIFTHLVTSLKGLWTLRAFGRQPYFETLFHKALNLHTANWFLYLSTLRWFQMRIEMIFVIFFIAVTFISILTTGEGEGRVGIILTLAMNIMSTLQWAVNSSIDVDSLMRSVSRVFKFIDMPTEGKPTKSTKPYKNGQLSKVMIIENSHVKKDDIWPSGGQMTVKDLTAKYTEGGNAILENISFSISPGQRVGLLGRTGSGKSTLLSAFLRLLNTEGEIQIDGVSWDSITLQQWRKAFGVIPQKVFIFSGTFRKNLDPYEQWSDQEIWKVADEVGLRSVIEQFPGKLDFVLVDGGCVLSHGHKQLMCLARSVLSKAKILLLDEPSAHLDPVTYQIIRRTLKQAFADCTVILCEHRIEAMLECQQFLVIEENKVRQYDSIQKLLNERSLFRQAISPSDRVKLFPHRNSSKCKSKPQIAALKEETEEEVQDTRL

## CN1C(=O)CO[C@@H]2CN(c3cc(C(=O)O)nc4c3c(C3CCC3)nn4-c3ccccc3)C[C@@H]21 [compound 503, 3-cyclobutyl-4-[(4aS,7aR)-4-methyl-3-oxohexahydropyrrolo[3,4-b][1,4]oxazin-6(2H)-yl]-1-phenyl-1H-pyrazolo[3,4-b]pyridine-6-carboxylic acid]
ΔF508-CFTR [1]
  % Activation: 220.8%
  EC50: 3190 nM
ΔF508-CFTR [2]; [3]
  % Activation: 65.78%
  EC50: 3340 nM

## Cc1nn(-c2ccccc2)c2nc(C(=O)O)cc(-c3ccc(N4CCC5(CC4)COC5)cc3)c12 [compound 154, 3-methyl-4-[4-(2-oxa-7-azaspiro[3.5]nonan-7-yl)phenyl]-1-phenyl-1H-pyrazolo[3,4-b]pyridine-6-carboxylic acid]
ΔF508-CFTR [1]
  % Activation: 353.7%
  EC50: 748 nM
ΔF508-CFTR [2]; [4]
  % Activation: 153.9%
ΔF508-CFTR [2]; [5]
  EC50: 918 nM

## COC1CCCN(C2CCN(c3cc(C(=O)O)nc4c3c(C3CCC3)nn4-c3ccc(F)cc3)CC2)C1 (centres unmarked) [compound 875, 3-cyclobutyl-1-(4-fluorophenyl)-4-(3-methoxy[1,4′-bipiperidin]-1′-yl)-1H-pyrazolo[3,4-b]pyridine-6-carboxylic acid]
ΔF508-CFTR [1]
  % Activation: 450.3%
  EC50: 819 nM
ΔF508-CFTR [2]; [3]
  % Activation: 270.7%
  EC50: 1600 nM

## Cc1cccc(-n2nc(C(C)C)c3c(N4CCC5(C4)CC5(F)F)cc(C(=O)O)nc32)c1 (centres unmarked) [compound 271, 4-(1,1-difluoro-5-azaspiro[2.4]heptan-5-yl)-1-(3-methylphenyl)-3-(propan-2-yl)-1H-pyrazolo[3,4-b]pyridine-6-carboxylic acid]
ΔF508-CFTR [1]
  % Activation: 323.5%
  EC50: 396 nM
ΔF508-CFTR [2]; [4]
  % Activation: 144.2%
ΔF508-CFTR [2]; [5]
  EC50: 924 nM

## COCC1CN(c2cc(C(=O)O)nc3c2c(C2CCC2)nn3-c2ccccc2)C1 [compound 418, 3-cyclobutyl-4-[3-(methoxymethyl)azetidin-1-yl]-1-phenyl-1H-pyrazolo[3,4-b]pyridine-6-carboxylic acid]
ΔF508-CFTR [1]
  % Activation: 342.25%
  EC50: 598 nM
ΔF508-CFTR [2]; [3]
  % Activation: 144.95%
  EC50: 1220 nM

## CN(C)c1ccc(-n2nc(C3CCC3)c3c(-c4ccc(N5CCOCC5)cc4)cc(C(=O)O)nc32)cc1 [compound 357, 3-cyclobutyl-1-[4-(dimethylamino)phenyl]-4-[4-(morpholin-4-yl)phenyl]-1H-pyrazolo[3,4-b]pyridine-6-carboxylic acid]
ΔF508-CFTR [1]
  % Activation: 274.8%
  EC50: 806 nM
ΔF508-CFTR [2]; [4]
  % Activation: 113.47%
ΔF508-CFTR [2]; [5]
  EC50: 885 nM

## COC1CCN(C2CCN(c3cc(C(=O)O)nc4c3c(C3CCC3)nn4-c3ccc(F)cc3)CC2)C1 (centres unmarked) [compound 848, 3-cyclobutyl-1-(4-fluorophenyl)-4-[4-(3-methoxypyrrolidin-1-yl)piperidin-1-yl]-1H-pyrazolo[3,4-b]pyridine-6-carboxylic acid]
ΔF508-CFTR [1]
  % Activation: 405.2%
  EC50: 427 nM
ΔF508-CFTR [2]; [3]
  % Activation: 249%
  EC50: 1200 nM

## CC(C)c1nn(C2CCCCC2)c2nc(C(=O)O)cc(N3CCC(CO)CC3)c12 [compound 266, 1-cyclohexyl-4-[4-(hydroxymethyl)piperidin-1-yl]-3-(propan-2-yl)-1H-pyrazolo[3,4-b]pyridine-6-carboxylic acid]
ΔF508-CFTR [1]
  % Activation: 405.3%
  EC50: 1050 nM
ΔF508-CFTR [2]; [4]
  % Activation: 197.55%
ΔF508-CFTR [2]; [5]
  EC50: 1250 nM

## Cc1nn(-c2ccccc2)c2nc(C(=O)O)cc(-c3ccc(N4CCCCC4)cc3)c12 [compound 8, 3-methyl-1-phenyl-4-[4-(piperidin-1-yl)phenyl]-1H-pyrazolo[3,4-b]pyridine-6-carboxylic acid]
ΔF508-CFTR [2]; [4]
  % Activation: 91.055%
ΔF508-CFTR [2]; [5]
  EC50: 754 nM

## Cc1nn(-c2ccccc2)c2nc(C(=O)O)cc(-c3ccc(N4CCCC4)cc3)c12 [compound 25, 3-methyl-1-phenyl-4-[4-(pyrrolidin-1-yl)phenyl]-1H-pyrazolo[3,4-b]pyridine-6-carboxylic acid]
ΔF508-CFTR [2]; [4]
  % Activation: 93.1%
ΔF508-CFTR [2]; [5]
  EC50: 1500 nM

## Cc1nn(-c2ccccc2)c2nc(C(=O)O)cc(-c3ccc(C4=CCN(C)CC4)cc3)c12 [compound 27, 3-methyl-4-[4-(1-methyl-1,2,3,6-tetrahydropyridin-4-yl)phenyl]-1-phenyl-1H-pyrazolo[3,4-b]pyridine-6-carboxylic acid]
ΔF508-CFTR [2]; [4]
  % Activation: 41.145%
ΔF508-CFTR [2]; [5]
  EC50: 6670 nM

## Cc1nn(-c2cccc(Cl)c2)c2nc(C(=O)O)cc(-c3ccc(N4CCOCC4)cc3)c12 [compound 11, 1-(3-chlorophenyl)-3-methyl-4-[4-(morpholin-4-yl)phenyl]-1H-pyrazolo[3,4-b]pyridine-6-carboxylic acid]
ΔF508-CFTR [2]; [4]
  % Activation: 134.3%
ΔF508-CFTR [2]; [5]
  EC50: 1380 nM

## Cc1nn(-c2cccc(S(C)(=O)=O)c2)c2nc(C(=O)O)cc(-c3ccc(N4CCOCC4)cc3)c12 [compound 38, 1-[3-(methanesulfonyl)phenyl]-3-methyl-4-[4-(morpholin-4-yl)phenyl]-1H-pyrazolo[3,4-b]pyridine-6-carboxylic acid]
ΔF508-CFTR [2]; [4]
  % Activation: 23.86%
ΔF508-CFTR [2]; [5]
  EC50: > 10000 nM

## Cc1nn(-c2cccc(C(N)=O)c2)c2nc(C(=O)O)cc(-c3ccc(N4CCOCC4)cc3)c12 [compound 59, 1-(3-carbamoylphenyl)-3-methyl-4-[4-(morpholin-4-yl)phenyl]-1H-pyrazolo[3,4-b]pyridine-6-carboxylic acid]
ΔF508-CFTR [2]; [4]
  % Activation: 13.69%
ΔF508-CFTR [2]; [5]
  EC50: > 10000 nM

## Cc1nn(-c2cc(F)cc(F)c2)c2nc(C(=O)O)cc(-c3ccc(N4CCOCC4)cc3)c12 [compound 10, 1-(3,5-difluorophenyl)-3-methyl-4-[4-(morpholin-4-yl)phenyl]-1H-pyrazolo[3,4-b]pyridine-6-carboxylic acid]
ΔF508-CFTR [2]; [4]
  % Activation: 116.55%
ΔF508-CFTR [2]; [5]
  EC50: 867 nM

## Cc1nn(-c2cc[nH]c(=O)c2)c2nc(C(=O)O)cc(-c3ccc(N4CCOCC4)cc3)c12 [compound 58, 3-methyl-4-[4-(morpholin-4-yl)phenyl]-1-(2-oxo-1,2-dihydropyridin-4-yl)-1H-pyrazolo[3,4-b]pyridine-6-carboxylic acid]
ΔF508-CFTR [2]; [4]
  % Activation: 4.754%
ΔF508-CFTR [2]; [5]
  EC50: > 10000 nM

## CC(C)(CO)c1nn(-c2ccccc2)c2nc(C(=O)O)cc(-c3ccc(N4CCOCC4)cc3)c12 [compound 56, 3-(1-hydroxy-2-methylpropan-2-yl)-4-[4-(morpholin-4-yl)phenyl]-1-phenyl-1H-pyrazolo[3,4-b]pyridine-6-carboxylic acid]
ΔF508-CFTR [2]; [4]
  % Activation: 53.1%
ΔF508-CFTR [2]; [5]
  EC50: 3340 nM

## Cc1nn(-c2ccnc(F)c2)c2nc(C(=O)O)cc(-c3ccc(N4CCOCC4)cc3)c12 [compound 57, 1-(2-fluoropyridin-4-yl)-3-methyl-4-[4-(morpholin-4-yl)phenyl]-1H-pyrazolo[3,4-b]pyridine-6-carboxylic acid]
ΔF508-CFTR [2]; [4]
  % Activation: 68.57%
ΔF508-CFTR [2]; [5]
  EC50: 3340 nM

## Cc1nn(-c2ccc(F)c(F)c2)c2nc(C(=O)O)cc(-c3ccc(N4CCOCC4)cc3)c12 [compound 37, 1-(3,4-difluorophenyl)-3-methyl-4-[4-(morpholin-4-yl)phenyl]-1H-pyrazolo[3,4-b]pyridine-6-carboxylic acid]
ΔF508-CFTR [2]; [4]
  % Activation: 112.9%
ΔF508-CFTR [2]; [5]
  EC50: 1110 nM

## Cc1nn(-c2ccc(OC(F)(F)F)cc2)c2nc(C(=O)O)cc(-c3ccc(N4CCOCC4)cc3)c12 [compound 31, 3-methyl-4-[4-(morpholin-4-yl)phenyl]-1-[4-(trifluoromethoxy)phenyl]-1H-pyrazolo[3,4-b]pyridine-6-carboxylic acid]
ΔF508-CFTR [2]; [4]
  % Activation: 96.335%
ΔF508-CFTR [2]; [5]
  EC50: 522 nM

Source: US9796711B2, “Substituted pyrazolo[3,4-b]pyridin-6-carboxylic acids and method of use” (AbbVie S.àr.l., priority 2015, dated 2017)
